What was measured:
Assay in all cases: relative viability (nuclei count vs DMSO), 5 days (fraction); higher = more cells survive
[1] = compound: COc1cc2ncn(-c3cc(OCc4ccccc4C(F)(F)F)c(C(N)=O)s3)c2cc1OC + CS(=O)(=O)N1CCN(Cc2cc3nc(-c4cccc5[nH]ncc45)nc(N4CCOCC4)c3s2)CC1 [Pictilisib] (partner 1 µM)
Procedure, shortened: (§1)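 One day after seeding in 1536-well plates, lung cancer cell lines were dosed by pin tool. Dosing was either single-drug or a fixed anchor-drug dose plus five library-drug doses (not always all listed) in √10 steps. After 5 days, nuclei were stained in one fix-and-stain step and counted on 4× images, and relative viability is the nuclei count of treated wells over that of vehicle wells, given as the median of duplicate plates.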

[2] = compound: COc1cc2ncn(-c3cc(OCc4ccccc4C(F)(F)F)c(C(N)=O)s3)c2cc1OC + C[C@@H](Oc1cc(-c2cnn(C3CCNCC3)c2)cnc1N)c1c(Cl)ccc(F)c1Cl [Crizotinib] (partner 1 µM)
Procedure, shortened: as §1

[3] = compound: COc1cc2ncn(-c3cc(OCc4ccccc4C(F)(F)F)c(C(N)=O)s3)c2cc1OC + O=C(CCCCCCC(=O)Nc1ccccc1)NO [Vorinostat] (partner 1 µM)
Procedure, shortened: as §1

[4] = compound: COc1cc2ncn(-c3cc(OCc4ccccc4C(F)(F)F)c(C(N)=O)s3)c2cc1OC + Cc1nc(Nc2ncc(C(=O)Nc3c(C)cccc3Cl)s2)cc(N2CCN(CCO)CC2)n1 [Dasatinib] (partner 0.075 µM)
Procedure, shortened: as §1

| Cell Line | relative viability ([1]; first compound 0.05 µM) | relative viability ([1]; first compound 0.1581 µM) | relative viability ([1]; first compound 0.5 µM) | relative viability ([1]; first compound 1.581 µM) | relative viability ([1]; first compound 5 µM) | relative viability ([2]; first compound 0.05 µM) | relative viability ([2]; first compound 0.1581 µM) | relative viability ([2]; first compound 0.5 µM) | relative viability ([2]; first compound 1.581 µM) | relative viability ([2]; first compound 5 µM) | relative viability ([3]; first compound 0.05 µM) | relative viability ([3]; first compound 0.1581 µM) | relative viability ([3]; first compound 0.5 µM) | relative viability ([3]; first compound 1.581 µM) | relative viability ([3]; first compound 5 µM) | relative viability ([4]; first compound 0.05 µM) | relative viability ([4]; first compound 0.1581 µM) | relative viability ([4]; first compound 0.5 µM) | relative viability ([4]; first compound 1.581 µM) | relative viability ([4]; first compound 5 µM) |
| --- | --- | --- | --- | --- | --- | --- | --- | --- | --- | --- | --- | --- | --- | --- | --- | --- | --- | --- | --- | --- |
| 201T | 0.717 | 0.743 | 0.682 | 0.319 | 0.247 | 1.05 | 1.08 | 0.967 | 0.878 | 0.293 | 1.01 | 0.994 | 0.815 | 0.283 | 0.195 | 0.543 | 0.536 | 0.546 | 0.45 | 0.244 |
| A549 | 0.606 | 0.55 | 0.0875 | 0.0523 | 0.0706 | 0.864 | 0.612 | 0.104 | 0.0479 | 0.102 | – | – | – | – | – | – | – | – | – | – |
| A-427 | 0.76 | 0.527 | 0.729 | 0.262 | 0.117 | 0.917 | 0.826 | 0.587 | 0.163 | 0.124 | 0.88 | 0.947 | 0.684 | 0.194 | 0.154 | 0.839 | 0.501 | 0.602 | 0.175 | 0.088 |
| ABC-1 | 0.645 | 0.791 | 0.634 | 0.284 | 0.229 | 1.34 | 0.988 | 0.875 | 0.152 | 0.291 | 1.59 | 0.849 | 0.58 | 0.369 | 0.305 | 0.539 | 0.542 | 0.469 | 0.276 | 0.239 |
| BEN | 0.653 | 0.557 | 0.471 | 0.223 | 0.233 | 0.814 | 0.839 | 0.687 | 0.268 | 0.526 | 0.643 | 0.591 | 0.413 | 0.33 | 0.3 | 0.363 | 0.327 | 0.29 | 0.186 | 0.229 |
| CAL-12T | 0.351 | 0.389 | 0.323 | 0.186 | 0.177 | 0.705 | 0.377 | 0.207 | 0.126 | 0.124 | 0.674 | 0.558 | 0.268 | 0.141 | 0.159 | 0.415 | 0.249 | 0.0865 | 0.105 | 0.122 |
| COR-L23 | 0.876 | 0.9 | 0.533 | 0.0929 | 0.0905 | 0.667 | 0.671 | 0.3 | 0.118 | 0.12 | 0.381 | 0.416 | 0.162 | 0.0758 | 0.0932 | 0.434 | 0.364 | 0.203 | 0.102 | 0.0618 |
| COR-L 105 | 0.475 | 0.386 | 0.267 | 0.279 | 0.259 | 0.978 | 0.831 | 0.658 | 0.215 | 0.264 | 0.728 | 0.854 | 0.815 | 0.304 | 0.254 | 0.337 | 0.33 | 0.273 | 0.22 | 0.19 |
| Calu-6 | 0.821 | 0.735 | 0.221 | 0.0967 | 0.102 | 0.778 | 0.755 | 0.288 | 0.107 | 0.106 | – | – | – | – | – | – | – | – | – | – |
| HCC-44 | 0.76 | 0.601 | 0.632 | 0.104 | 0.11 | 0.818 | 0.815 | 0.503 | 0.123 | 0.104 | 1.14 | 1.03 | 0.852 | 0.331 | 0.247 | – | – | – | – | – |
| IA-LM | 0.46 | 0.262 | 0.0711 | 0.0659 | 0.0766 | 0.717 | 0.395 | 0.198 | 0.0759 | 0.0777 | 0.916 | 0.803 | 0.241 | 0.0678 | 0.0714 | – | – | – | – | – |
| NCI-H522 | – | – | – | – | – | – | – | – | – | – | 0.962 | 1.1 | 0.733 | 0.292 | 0.237 | 0.937 | 0.846 | 0.814 | 0.628 | 0.369 |
| NCI-H1299 | 0.77 | 0.699 | 0.18 | 0.142 | 0.132 | 0.982 | 0.939 | 0.572 | 0.305 | 0.329 | – | – | – | – | – | – | – | – | – | – |
| NCI-H1395 | 0.609 | 0.686 | 0.461 | 0.635 | 0.438 | – | – | – | – | – | 0.711 | 0.688 | 0.466 | 0.354 | 0.25 | 0.413 | 0.438 | 0.455 | 0.358 | 0.306 |
| NCI-H1563 | 0.684 | 0.607 | 0.683 | 0.55 | 0.5 | 0.832 | 0.968 | 0.872 | 0.661 | 0.582 | – | – | – | – | – | 0.51 | 0.506 | 0.454 | 0.44 | 0.349 |
| NCI-H1648 | – | – | – | – | – | – | – | – | – | – | 0.37 | 0.523 | 0.203 | 0.267 | 0.186 | – | – | – | – | – |
| NCI-H1703 | 0.256 | 0.227 | 0.2 | 0.126 | 0.172 | 0.962 | 0.813 | 0.144 | 0.117 | 0.206 | – | – | – | – | – | – | – | – | – | – |
| NCI-H1792 | 0.278 | 0.254 | 0.158 | 0.0865 | 0.109 | 1.05 | 0.937 | 0.752 | 0.459 | 0.0845 | – | – | – | – | – | 0.786 | 0.757 | 0.372 | 0.287 | 0.25 |
| NCI-H1793 | 0.272 | 0.308 | 0.179 | 0.192 | 0.228 | – | – | – | – | – | 0.553 | 0.42 | 0.328 | 0.17 | 0.113 | 0.379 | 0.382 | 0.3 | 0.15 | 0.141 |
| NCI-H2342 | – | – | – | – | – | – | – | – | – | – | 0.917 | 0.744 | 0.595 | 0.693 | 0.527 | 0.325 | 0.354 | 0.279 | 0.278 | 0.237 |

— the supplement of paper PMC10307832
